“Also recorded” adds a separate entry of the source.
What was measured:
[1] = Phase I Part 1: plasma pharmacokinetics after single oral dose; assay type: in vivo, human; conditions: for MRT / AUC0−∞ / Cmax / T1/2: geometric mean
Protocol: To test dose proportionality, PK parameters were analyzed graphically as AUC/dose and Cmax/dose and via a power model (PK parameter=α*dose^β) approach with log-transformed PK parameters as the dependent variable and log-transformed dose as the independent variable.

[2] = Clinical trial of relative bioavailability of tablet vs powder-in-capsule incl. food effect in healthy volunteers; assay type: in vivo, human; conditions: oral administration in proximity in time to food (fed vs fasted)
[3] = tested on: BCR- and FcR-mediated signalling; conditions: variety of human cellular assays; cited from earlier work
[4] = Phase I Holter ECG assessment and concentration-QTcF analysis; assay type: in vivo, human; conditions: for Mean ΔΔQTcF: 100 mg dose group (n=6); for Predicted mean ΔΔQTcF: linear mixed model
Protocol: Holter ECG recordings of 24 h duration were performed on Day 1 in Parts 1 and 2 of the study using digital 12-lead Holter devices (GI M12R, Manlius, N.Y.) and analyzed in the Quintiles central ECG laboratory. Ten second 12-lead ECGs were extracted in triplicate using Antares ECG extraction software (version 2.15.1.0, AMPS-LLC, New York, N.Y.) for each PK time point (predose and 0.25, 0.5, 1.0, 1.5, 2, 2.5, 3, 4, 5, 6, 8, 12, 16, 24 h postdose) within a −5 to 0 minute window prior to and a 5 minute window after each sampling time point. The quality of extracted ECG snapshots was checked by a Holter Associate/Specialist using the Anatares quality control review interface. The mean QT and RR values from the triplicate ECGs were used to calculate QTcF for each time point.
The dataset consisted of Day 1 ECG and PK data from all subjects in Parts 1 and 2 of the study.
Model derived predicted mean ΔΔQTcF was calculated for the geometric mean Cmax of each dose cohort. Two-sided 90% CIs of the estimate were determined using bootstrapping (1,000 resamples). By-time point analysis of actual values and change from baseline was performed for QTcF. Mean ΔΔQTcF with an associated 90% CI was summarized by time point for each dose cohort.

[5] = tested on: human patients suffering from relapsing multiple sclerosis (RMS); test: Phase II RMS study: HRQoL SF-36 Physical Component Summary score; assay type: in vivo; conditions: for Difference in LS means of CFB in PCS score vs placebo: week 24, MMRM
Protocol: Analysis of Primary Endpoint
Primary and secondary efficacy endpoints were analysed based on the modified intention-to-treat (mITT) analysis set, consisting of all randomized patients with at least one available baseline and one post-baseline MRI assessment. […] For each endpoint, rate ratio (RR; null-hypothesis RR=1.0) adjusted for baseline disease activity was reported together with associated 95% CI and p-value. The T2 lesion endpoint was analysed similarly. Dose-response relationships between evobrutinib treatment dose and primary and key secondary endpoints were assessed for linear and monotonic trend. The analysis of CFB in cube root of volume of T2 lesions at Week 24 was based on a mixed-effect model for repeated measures, with fixed effects for treatment, week of visit, and treatment-by-week interaction, random effect for subject, and adjustment for baseline cube root of lesion volume. CFB in SF-36 score at Week 24 was analysed similarly. Descriptive statistics were used to further describe the study outcomes.

**Q.** Which “Time after dosing up to which concentrations above LLOQ were measurable” value ([1]; 350 and 500 mg, some (n=3) subjects) does the source give for `C=CC(=O)N1CCC(CNc2ncnc(N)c2-c2ccc(Oc3ccccc3)cc2)CC1` [Evobrutinib, 1-(4-(((6-amino-5-(4-phenoxyphenyl)pyrimidin-4-yl)amino)methyl)piperidin-1-yl)prop-2-en-1-one] here?
**A.** up to 48 h

**Q.** And the Vd/F ([1]; both sexes, human, plasma, oral, all doses, read-out: Relevant Vz/F)?
**A.** ~650 L

**Q.** And the MRT ([1]; human, plasma, oral, single dose 25 mg)?
**A.** 1.82 h

**Q.** What about the MRT ([1]; human, plasma, oral, single dose 50 mg) of the same compound?
**A.** 1.82 h

**Q.** What about the MRT ([1]; human, plasma, oral, single dose 100 mg) of the same compound?
**A.** 1.7 h

**Q.** And the MRT ([1]; human, plasma, oral, single dose 200 mg)?
**A.** 1.8 h

**Q.** What about the MRT ([1]; human, plasma, oral, single dose 350 mg) of the same compound?
**A.** 2.26 h

**Q.** What about the MRT ([1]; human, plasma, oral, single dose 500 mg) of the same compound?
**A.** 2.19 h

**Q.** What about the “PK profile in words (clearance, Vz/f, t1/2)” value ([1]; humans) of the same compound?
**A.** moderate-to-high plasma clearance, medium Vz/f, and short t1/2

**Q.** And the “Apparent clearance (CL/F)” value ([1]; range across single doses)?
**A.** 2,553-3,995 mL/min

**Q.** What about the “AUC0−∞” value ([1]; single dose 25 mg) of the same compound?
**A.** 104 ng·h/mL

**Q.** And the Cmax ([1]; single dose 25 mg)?
**A.** 69.9 ng/mL

**Q.** What about the T1/2 ([1]; single dose 25 mg) of the same compound?
**A.** 1.80 h

**Q.** And the “AUC0−∞” value ([1]; single dose 50 mg)?
**A.** 326 ng·h/mL

**Q.** And the Cmax ([1]; single dose 50 mg)?
**A.** 234 ng/mL

**Q.** What about the T1/2 ([1]; single dose 50 mg) of the same compound?
**A.** 2.06 h

**Q.** And the “AUC0−∞” value ([1]; single dose 100 mg)?
**A.** 434 ng·h/mL

**Q.** And the Cmax ([1]; single dose 100 mg)?
**A.** 309 ng/mL

**Q.** And the T1/2 ([1]; single dose 100 mg)?
**A.** 2.56 h

**Q.** What about the “AUC0−∞” value ([1]; single dose 200 mg) of the same compound?
**A.** 856 ng·h/mL

**Q.** What about the Cmax ([1]; single dose 200 mg) of the same compound?
**A.** 555 ng/mL

**Q.** What about the T1/2 ([1]; single dose 200 mg) of the same compound?
**A.** 2.09 h

**Q.** And the “AUC0−∞” value ([1]; single dose 350 mg)?
**A.** 1,910 ng * h/mL

**Q.** What about the Cmax ([1]; single dose 350 mg) of the same compound?
**A.** 846 ng/mL

**Q.** And the T1/2 ([1]; single dose 350 mg)?
**A.** 6.81 h

**Q.** What about the “AUC0−∞” value ([1]; single dose 500 mg) of the same compound?
**A.** 3,220 ng * h/mL

**Q.** And the Cmax ([1]; single dose 500 mg)?
**A.** 1510 ng/mL

**Q.** And the T1/2 ([1]; single dose 500 mg)?
**A.** 6.63 h

**Q.** What about the “Apparent geometric mean terminal half-life (t1/2)” value ([1]; single doses 25-200 mg) of the same compound?
**A.** 1.8 to 2.6 h

**Q.** And the “Apparent geometric mean terminal half-life (t1/2)” value ([1]; single doses 350 and 500 mg)?
**A.** 6.6 to 6.8 h

**Q.** What about the “Plasma concentration remaining after Cmax” value ([1]; within 8 h, dose-independent) of the same compound?
**A.** less than 1 % of Cmax

**Q.** What about the “Relevant t1/2” value ([1]; within the first 8 h, all doses) of the same compound?
**A.** ~2 h

**Q.** What about the “Effect of food on bioavailability” value [2] of the same compound?
**A.** significant increase in the bioavailability

**Q.** And the “BCR- and FcR-mediated signalling” value [3]?
**A.** potently inhibit

**Q.** And the “Geometric mean Cmax” value ([4]; 25 mg dose group, Day 1, Parts 1 and 2)?
**A.** 86.48 ng/mL

**Q.** And the “Geometric mean Cmax” value ([4]; 25 mg dose group, Day 1, Parts 1 and 2, listed as evobrutinib)?
**A.** 86.5 ng/mL

**Q.** What about the “Geometric mean Cmax” value ([4]; 50 mg dose group, Day 1) of the same compound?
**A.** 233.9 ng/mL

**Q.** And the “Geometric mean Cmax” value ([4]; 75 mg dose group, Day 1)?
**A.** 253.9 ng/mL

**Q.** And the “Mean ΔΔQTcF” value ([4]; 6 h post-dose)?
**A.** 7.1 ms

**Q.** What about the “Mean ΔΔQTcF” value ([4]; 8 h post-dose) of the same compound?
**A.** 5.6 ms

**Q.** And the “Mean ΔΔQTcF” value ([4]; 12 h post-dose)?
**A.** 7.2 ms

**Q.** And the “Geometric mean Cmax” value ([4]; 100 mg dose group, Day 1)?
**A.** 308.6 ng/mL

**Q.** And the “Geometric mean Cmax” value ([4]; 200 mg dose group, Day 1, Parts 1 and 2)?
**A.** 689.2 ng/mL

**Q.** And the “Geometric mean Cmax” value ([4]; 350 mg dose group, Day 1)?
**A.** 845.9 ng/mL

**Q.** And the “Geometric mean Cmax” value ([4]; 500 mg dose group, Day 1)?
**A.** 1512.3 ng/mL

**Q.** And the “Geometric mean Cmax” value ([4]; 500 mg dose group, Day 1, listed as evobrutinib)?
**A.** 1,512 ng/ml

**Q.** And the “Subjects with change from baseline in QTcF between 30 ms and 60 ms” value ([4]; 2 of 81 subjects, both in the 200 mg dose group)?
**A.** 2.5%

**Q.** And the “Change from baseline in QTcF” value ([4]; all ECGs)?
**A.** ≤ 60 ms

**Q.** What about the “Mean ΔΔQTcF over the range of doses evaluated” value ([4]; all time points, with the exception of the 100 mg dose group) of the same compound?
**A.** < 5 ms

**Q.** And the “Absolute QTcF value” ([4]; any dose group, any time point)?
**A.** ≤ 450 ms

**Q.** And the “Predicted mean ΔΔQTcF” value ([4]; at geometric mean Cmax of 25 mg dose group)?
**A.** -0.78 ms

**Q.** What about the “Predicted mean ΔΔQTcF” value ([4]; at geometric mean Cmax of 50 mg dose group) of the same compound?
**A.** -0.82 ms

**Q.** What about the “Predicted mean ΔΔQTcF” value ([4]; at geometric mean Cmax of 75 mg dose group) of the same compound?
**A.** -0.82 ms

**Q.** What about the “Predicted mean ΔΔQTcF” value ([4]; at geometric mean Cmax of 100 mg dose group) of the same compound?
**A.** -0.84 ms

**Q.** What about the “Predicted mean ΔΔQTcF” value ([4]; at geometric mean Cmax of 200 mg dose group) of the same compound?
**A.** -0.94 ms

**Q.** What about the “Predicted mean ΔΔQTcF” value ([4]; at geometric mean Cmax of 350 mg dose group) of the same compound?
**A.** -0.98 ms

**Q.** What about the “Predicted mean ΔΔQTcF” value ([4]; at geometric mean Cmax of 500 mg dose group) of the same compound?
**A.** -1.16 ms

**Q.** And the “Change from baseline in HR, PR and QRS values post-dose” value ([4]; categorical analysis)?
**A.** no clinically significant change from baseline

**Q.** What about the “Slope of the relationship between placebo-adjusted ΔQTcF and concentration” value ([4]; linear mixed-effects model, P=0.86) of the same compound?
**A.** −0.00027 ms/ng per mL

**Q.** And the “Subjects with treatment-emergent T wave morphological abnormalities” value ([4]; one in the 50 mg and one in the 100 mg dose group)?
**A.** two

**Q.** And the “Effect on QTcF / exposure-effect relationship” value ([4]; single doses up to 500 mg)?
**A.** did not prolong QTcF; also recorded: No evidence of a significant exposure-effect relationship; also recorded: no prolongation of QTcF

**Q.** And the “Hysteresis between plasma concentration and ΔQTcF” value ([4]; statistical test based on ΔΔQTcF)?
**A.** no evidence of hysteresis

**Q.** What about the “Change in SF-36 PCS score from baseline to week 24, Mean ± SD” value (“Change in SF-36 PCS score … Mean ± SD” below) ([5]; 25 mg QD) of the same compound?
**A.** 0.8 ± 5.93

**Q.** And the “Change in SF-36 PCS score from baseline to week 24, Median” value (“Change in SF-36 PCS score … Median” below) ([5]; 25 mg QD)?
**A.** 0.3

**Q.** And the “Difference in LS means of CFB in PCS score vs placebo” value (from here on “Difference in LS means of CFB”) ([5]; 25 mg QD)?
**A.** 1.73

**Q.** And the “Change in SF-36 PCS score … Mean ± SD” value ([5]; 75 mg BID)?
**A.** 1.1 ± 5.22

**Q.** What about the “Change in SF-36 PCS score … Median” value ([5]; 75 mg BID) of the same compound?
**A.** 1.3

**Q.** And the “Difference in LS means of CFB” value ([5]; 75 mg BID)?
**A.** 1.93

**Q.** And the “Change in SF-36 PCS score … Mean ± SD” value ([5]; 75 mg QD)?
**A.** 1.5 ± 7.09

**Q.** And the “Change in SF-36 PCS score … Median” value ([5]; 75 mg QD)?
**A.** 0.6

**Q.** What about the “Difference in LS means of CFB” value ([5]; 75 mg QD) of the same compound?
**A.** 1.95

**Q.** What about the “Change in SF-36 PCS score … Mean ± SD” value ([5]; 75 mg QD, listed as evobrutinib) of the same compound?
**A.** 1.5±7.09
